One compound from ChEMBL document CHEMBL4043085, “Anisucoumaramide, a Bioactive Coumarin from Clausena anisum-olens” (J Nat Prod, 2017) can be followed below.

For data set [1], the target named is T1, Amine oxidase [flavin-containing] A (Homo sapiens, UniProt P21397).
T1 sequence (P21397 whole entry): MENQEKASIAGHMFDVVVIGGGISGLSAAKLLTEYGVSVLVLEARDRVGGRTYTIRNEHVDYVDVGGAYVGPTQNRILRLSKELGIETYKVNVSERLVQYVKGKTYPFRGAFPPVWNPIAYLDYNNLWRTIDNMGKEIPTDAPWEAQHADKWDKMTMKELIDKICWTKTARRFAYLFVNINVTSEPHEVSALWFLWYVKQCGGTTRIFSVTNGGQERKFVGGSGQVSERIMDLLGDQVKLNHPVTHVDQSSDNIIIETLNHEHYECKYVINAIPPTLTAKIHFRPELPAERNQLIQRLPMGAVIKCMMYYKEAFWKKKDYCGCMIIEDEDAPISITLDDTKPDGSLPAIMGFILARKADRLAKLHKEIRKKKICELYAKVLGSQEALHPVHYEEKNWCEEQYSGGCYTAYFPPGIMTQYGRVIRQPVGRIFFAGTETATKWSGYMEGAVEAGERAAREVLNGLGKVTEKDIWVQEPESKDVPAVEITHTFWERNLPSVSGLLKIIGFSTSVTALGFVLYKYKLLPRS
The experiment in a line: Inhibition of human recombinant MAOA assessed as reduction in H2O2 production from p-tyramine at 100 uM incubated for 15 mins by Amplex red reagent based fluorimetric method. The note with it: 0.25 h.

Data set [2] has as its target T2, Amine oxidase [flavin-containing] B (Homo sapiens, UniProt P27338).
T2 sequence (P27338 whole entry): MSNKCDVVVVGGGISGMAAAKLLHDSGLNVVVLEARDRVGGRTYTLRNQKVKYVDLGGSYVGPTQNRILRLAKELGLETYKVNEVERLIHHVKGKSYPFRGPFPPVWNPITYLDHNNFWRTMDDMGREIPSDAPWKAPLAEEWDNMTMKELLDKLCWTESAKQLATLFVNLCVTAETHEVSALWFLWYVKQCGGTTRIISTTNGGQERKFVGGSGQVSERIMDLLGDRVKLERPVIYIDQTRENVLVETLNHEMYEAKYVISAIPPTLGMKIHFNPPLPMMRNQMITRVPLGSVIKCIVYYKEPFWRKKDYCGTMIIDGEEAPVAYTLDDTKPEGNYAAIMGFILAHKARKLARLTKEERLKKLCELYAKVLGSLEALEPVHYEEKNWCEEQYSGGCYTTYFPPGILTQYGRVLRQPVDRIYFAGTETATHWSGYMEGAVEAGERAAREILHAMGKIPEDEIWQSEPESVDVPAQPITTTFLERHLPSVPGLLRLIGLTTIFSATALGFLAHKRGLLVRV
The experiment in a line: Inhibition of human recombinant MAOB assessed as reduction in H2O2 production from p-tyramine incubated for 15 mins by Amplex red reagent based fluorimetric method.

The next data set is filed under the species Homo sapiens. Put plainly: Selectivity index, ratio of IC50 for human recombinant MAOA to IC50 for human recombinant MAOB.

Each structure is given as a SMILES string. Where only a bound is given, the exact number is not on record here.

In general, IC50 refers to the concentration at which inhibition is half-maximal. As for `COc1c(OC/C=C(\C)C[C@@H]2C=C(CCC(N)=O)C(=O)O2)ccc2ccc(=O)oc12`, the “inhibition (INH)” value in data set [1] is on record as “Not Active”. For the same compound, in data set [2], the IC50 stood at 144 nM. In the data set listed under Homo sapiens, the Ratio IC50 was above 696.
